Measured values: patent US20190083462A1, “PREVENTION OF NSAID ENTEROPATHY WITH MICROBIOTA-DERIVED TRYPTOPHAN-METABOLITE” (THE TEXAS A&M UNIVERSITY SYSTEM, priority 2016, published 2019)

Key:
[1] = test system: C57BL/6J mice; test: Fecal calprotectin ELISA; assay type: in vivo; conditions: feces, day 6 vs day 0; once daily gavage
Description: Eight- to 10-week-old specific-pathogen-free C57BL/6J mice were purchased and allowed to acclimate for 2 weeks. Mice were fed standardized laboratory rodent diet and sterile water ad libitum. […] Mice were then rehoused on the basis of treatment group assignment, with 5 animals/group-cage. To induce NSAID enteropathy, mice in group 1 were gavaged once daily with indomethacin (5 mg/kg; for 7 days; Sigma Aldrich, St. Louis, Mo.) dissolved in dimethylysulfoxide (DMSO) (Sigma Aldrich, St. Louis, Mo.) and further diluted in phosphate buffered saline (PBS). […] Sigma Aldrich, St. Louis, Mo.) dissolved in sterile water warmed to 55° C. […] All mice were gavaged with equal volumes (200 μL) and equal concentrations of DMSO (0.001%). Feces were collected daily by placing individual animals in sterile plastic cups that were RNase- and DNase-free until they passed feces. The mice were immediately returned to their home cages and the feces immediately flash frozen at -80° C. All animals were euthanized via CO2 asphyxiation on day 8 (i.e., after 7 days of treatment). […] Life Technologies, Carlsbad, Calif.), homogenized, and prepared as a single cell suspension for flow cytometric analysis as previously described (Wang […]. Measuring bacterial load and immune responses in mice infected with Listeria monocytogenes. Journal of Visualized Experiments: JoVE 2011). […]

[2] = test system: fecal tryptophan metabolites; test: Fecal tryptophan metabolites by LC-MS; assay type: in vivo, mice; conditions: for Magnitude of change in fecal concentration between Days 0 and 7: group effect ↑
Text: Eight- to 10-week-old specific-pathogen-free C57BL/6J mice were purchased and allowed to acclimate for 2 weeks. Mice were fed standardized laboratory rodent diet and sterile water ad libitum. Mice were randomly divided into the following 4 groups (n=5 mice/group): 1) NSAID (indomethacin); 2) indole; 3) NSAID+indole; and, 4) untreated controls. Mice were then rehoused on the basis of treatment group assignment, with 5 animals/group-cage. To induce NSAID enteropathy, mice in group 1 were gavaged once daily with indomethacin (5 mg/kg; for 7 days; Sigma Aldrich, St. Louis, Mo.) dissolved in dimethylysulfoxide (DMSO) (Sigma Aldrich, St. Louis, Mo.) and further diluted in phosphate buffered saline (PBS). Mice in group 2 received indole by gavage (20 mg/kg; once daily for 7 days; Sigma Aldrich, St. Louis, Mo.) dissolved in sterile water warmed to 55° C. Mice in group 3 received indole co-administered with indomethacin by gavage at the dosages described above. All mice were gavaged with equal volumes (200 μL) and equal concentrations of DMSO (0.001%).
Feces were collected daily by placing individual animals in sterile plastic cups that were RNase- and DNase-free until they passed feces. The mice were immediately returned to their home cages and the feces immediately flash frozen at −80° C. All animals were euthanized via CO2 asphyxiation on day 8 (i.e., after 7 days of treatment). The small intestine was harvested, opened longitudinally, rinsed with ice-cold PBS, and the distal ⅓ of the intestinal mucosa was scraped for tissue gene expression analysis. The remaining small intestine was fixed in 4% paraformaldehyde, Swiss-rolled, paraffin-embedded, and stained with hematoxylin and eosin. The spleen and mesenteric lymph nodes (MLN) were harvested, and immediately placed in ice cold RPMI-1640-c+10% fetal calf serum (FCS: Life Technologies, Carlsbad, Calif.), homogenized, and prepared as a single cell suspension for flow cytometric analysis as previously described (Wang N, Strugnell R, Wijburg O, Brodnicki T. Measuring bacterial load and immune responses in mice infected with Listeria monocytogenes. Journal of Visualized Experiments: JoVE 2011).
Metabolites from the fecal contents were extracted using a solvent-based method as previously described (Sridharan G V, Choi K, Klemashevich C, Wu C, Prabakaran D, Pan L B, Steinmeyer S, Mueller C, Yousofshahi M, Alaniz R C, et al. Prediction and quantification of bioactive microbiota metabolites in the mouse gut. Nature Communications 2014; 5:5492). Briefly, fecal pellets were homogenized using a homogenizer (Omni International) with equal volume of cold methanol and half volume of chloroform. The samples were then centrifuged at 10,000 g at 4° C. (Thermo Fisher Scientific) for 10 min. Supernatant was passed through a 70-μm sterile nylon cell strainer (Falcon) and 0.6 ml of ice cold water was added. The samples were vortex and centrifuged again at 10,000 g for 5 minutes. The upper phase and lower phase were collected and 400 μl of upper phase was dried to a pellet using a vacufuge (Eppendorf, Hauppauge, N.Y.), and then reconstituted in 50 μl of methanol/water (1:1, v/v). The samples were stored at −80° C. until analysis. Tryptophan metabolites in the samples were detected and quantified on a triple quadrupole linear ion trap mass spectrometer (3200 QTRAP, AB SCIEX, Foster City, Calif.) coupled to a binary pump HPLC (Prominence LC-20, Shimazu, Concord, Ontario, Canada).

COc1ccc2c(c1)c(CC(=O)O)c(C)n2C(=O)c1ccc(Cl)cc1 [NSAID, indomethacin]
fecal calprotectin levels [1]: significantly different from day 0 calprotectin | Magnitude of change in fecal concentration between Days 0 and 7 ([2]; 5-Hydroxyindole): 27.2 | Magnitude of change in fecal concentration between Days 0 and 7 ([2]; 5-Hydroxytryptamine): 13.9 | Magnitude of change in fecal concentration between Days 0 and 7 ([2]; Indole): 6.7 | Magnitude of change in fecal concentration between Days 0 and 7 ([2]; Serotonin): 1.6 | Magnitude of change in fecal concentration between Days 0 and 7 ([2]; Tyramine): 6.7 | fecal indole concentrations relative to controls ([2]; feces): significantly more indole | tyramine fecal concentration by treatment group ([2]; feces): significant increase
